# Experimental data from PubChem BioAssay (NCI).
# Values joined by “and” are separate entries in the source; they are usually repeats but may differ in a detail not shown here. Equal entries are not always repeated.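 Values below derive from 48-hour exposures of cells grown in 96-well plates, with endpoints linearly interpolated between the two concentrations bracketing the appropriate inhibition level. GI50 = concentration required for 50% inhibition of growth. TGI: concentration producing complete growth inhibition.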
# Key:
# Test in all cases: NCI anticancer screen, dose series, 48 h
# A549 NSCLC = test system: A549 NSCLC
# NCI-H23 lung = test system: NCI-H23 lung
# U251 CNS = test system: U251 CNS
# UACC-257 melanoma = test system: UACC-257 melanoma
# NCI-H460 lung = test system: NCI-H460 lung
# A498 renal = test system: A498 renal
# ACHN renal = test system: ACHN renal
# COLO 205 colon = test system: COLO 205 colon
# IGROV1 ovarian = test system: IGROV1 ovarian
# TK-10 renal = test system: TK-10 renal
# KM12 colon = test system: KM12 colon
# NCI/ADR-RES ovarian = test system: NCI/ADR-RES ovarian
Structure (SMILES),TGI (A549 NSCLC) [µM],TGI (NCI-H23 lung),TGI (U251 CNS) [µM],TGI (UACC-257 melanoma) [µM],TGI (NCI-H460 lung) [µM],TGI (A498 renal),TGI (ACHN renal) [µM],TGI (COLO 205 colon) [µM],TGI (IGROV1 ovarian) [µM],TGI (TK-10 renal) [µM],TGI (KM12 colon) [µM],TGI (NCI/ADR-RES ovarian) [µM],GI50 (NCI-H23 lung),GI50 (U251 CNS),GI50 (UACC-257 melanoma) [µM],GI50 (NCI-H460 lung) [µM],GI50 (A498 renal),GI50 (COLO 205 colon) [µM],GI50 (IGROV1 ovarian) [µM],GI50 (NCI/ADR-RES ovarian) [µM]
COc1ccc(N2C(=O)C3c4[nH]c5ccccc5c4C4CCC(C(C)C)CC4C3C2=O)cc1 (stereo unspecified),> 100,> 100 µM,> 100,> 100,> 100,> 100 µM,> 100,> 100,> 100,> 100,> 100,> 100,,,,,,,,
c1ccc(C(CCN2CCCC2)c2ccccn2)cc1 (stereo unspecified),> 100,> 100 µM,> 100,> 100,> 100,> 100 µM,> 100,> 100,> 100,> 100,> 100,> 100,,,,,,,,
CC(C)OC(=O)c1ccc(CCC2=CC(=O)C(Br)=CC2=O)cc1,> 100,26.2 µM,29.8,26.9,46.6,> 85 µM,27.8,24.7,27.8,45.3,26.5,37.4,,,,,,,,
CC1CCC2c3c([nH]c4ccccc34)C3C(=O)N(C4CCCCC4)C(=O)C3C2C1 (stereo unspecified),50.3,54.2 µM,25.3,> 100,> 100,37.9 µM,27.8,> 100,43.9,27.1,,> 100,,,,,,,,
C/C=C/C=C/C1=NN(c2cccc(S(=O)(=O)O)c2)C2(C1)SCC(=O)N2c1nc2ccccc2s1 (stereo unspecified),> 100,> 100 µM,> 100,> 100,> 100,> 100 µM,> 100,> 100,> 100,> 100,> 100,> 100,,,,,,,,
Cc1ccccc1NC(=S)N/N=C(/c1ccccc1)c1ccccn1,11.8,21.5 µM,12.1,0.357,9.05,10.2 µM,5.4,19.1,15.3,5.24,14,15.2,,,,,,,,
COC(=O)C1=C(OC(=O)/C(=C/c2ccc(Cl)cc2)c2ccccc2)C(C(=O)OC)[C@@]2(O)[C@@H](C(=O)OC)[C@H](C)C[C@@H]1[C@@H]2C(=O)OC (stereo partly specified),> 100,> 100 µM,> 100,> 100,> 100,> 100 µM,> 100,> 100,> 100,> 100,> 100,> 100,,,,,,,,
O=C([C@H](O)[C@@H](O)c1ccc(Br)cc1)C12CC3CC(CC(C3)C1)C2,97,> 37.9 µM,> 36.4,> 43.3,16.1,32.5 µM,> 54.1,> 40.2,12.9,> 47.8,> 74.9,> 57.1,,,,,,,,
O=C(/C=C/c1cccs1)c1ccsc1,> 100,57.6 µM,> 10,52.3,60.4,> 100 µM,42.6,38,73.6,97.6,> 10,> 100,,,,,,,,
O=C1c2ccccc2C2(c3ccc(Cl)cc3)NCc3ccccc3CN12 (stereo unspecified),43.8,48.4 µM,> 100,> 100,91.5,42.8 µM,51.6,28.3,94.7,> 100,44.2,29.9,,,,,,,,
O=C(c1ccc(Cl)cc1)N1N=C(c2ccc(Cl)cc2)CC1(O)c1cc(F)c(Cl)cc1Cl (stereo unspecified),> 100,73 µM,37.3,> 100,> 100,58.6 µM,62.2,48.8,> 100,> 100,21.7,> 100,,,,,,,,
Brc1cccc(C2(CCCC3(c4cccc(Br)n4)OCCO3)OCCO2)n1,> 100,> 100 µM,,> 100,> 100,> 100 µM,> 100,> 100,> 100,> 100,> 100,> 100,,,,,,,,
CN(N)C(=O)NCCCl,> 100,> 100 µM,> 100,> 100,> 100,> 100 µM,> 100,> 100,> 100,> 100,> 100,0.31,,,,,,,,
CC(=O)NC1C(OCc2ccccc2)OC(CO)C(O)C1OCC(=O)NC(C)C(=O)NC(CCC(=O)NCCCCCC(=O)Nc1ccc2c(c1)CN1C(=O)c3ccccc3C1=N2)C(N)=O (stereo unspecified),> 100,> 100 µM,> 100,> 100,> 100,> 100 µM,> 100,> 100,> 100,> 100,> 100,> 100,,,,,,,,
Cc1nnc(N)nc1/C=C\c1cccs1,> 100,55.1 µM,> 100,> 100,32.5,49.7 µM,33.1,> 100,28.7,> 100,31.5,76.6,,,,,,,,
Cc1cc(=O)c2c(O)c3c(O)cc(O)c4c5c(O)cc(O)c6c(O)c7c(=O)cc(C)c8c1c2c(c34)c(c65)c78,> 100,> 100 µM and 60.2 µM,> 100,> 100,> 100,> 100 µM and 75.6 µM,> 100,> 100,> 100,> 100,> 100,> 100,> 100 µM and 23 µM,> 100 µM and 37.3 µM,> 100,33.2,64.9 µM and 28.9 µM,> 100,> 100,> 100
Cc1ccccc1NC(=S)N=Nc1c(O)[nH]c2ccccc12,> 100,> 100 µM,> 100,> 100,> 100,> 100 µM,> 100,> 100,> 100,> 100,> 100,> 100,,,,,,,,
COC(=O)c1ccc(C)cc1C1CN=NC12Cc1cc(C)c(C)cc1C2=O (stereo unspecified),> 100,> 100 µM,> 100,> 100,> 100,> 100 µM,> 100,,> 100,> 100,> 100,> 100,,,,,,,,
